In US11192890B2, “FGFR kinase inhibitors and pharmaceutical uses” (AUCKLAND UNISERVICES LIMITED, priority 2017, dated 2021):
Where two headings read alike, the source gives them in different places.

Tests used:
[1] = target: T1, FGFR2 (Homo sapiens, UniProt P21802); test: Isolated enzyme FRET-based Z-Lyte kinase inhibition assay; format: biochemical; settings: means from 3 independent experiments; read-out: Isolate Enzyme Inhibition IC50, FGFR2
T1 construct: purchased Invitrogen
Experimental: (§1) FGFR1-4 and the Z-Lyte Kinase Assay Kit were purchased from Invitrogen. The concentration gradients from 5.1×10^−11 to 1.0×10^−6 mol/L were used for all the test compounds. The experiments were performed according to the instructions of the manufacturer.
(§2) FGFR1-4 isolated enzyme activity was determined using the FRET-based Z-Lyte kinase inhibition assay. The data are the means from 3 independent experiments.

[2] = target: T2, FGFR3 (Homo sapiens, UniProt P22607); test: as above; format: biochemical; settings: means from 3 independent experiments; read-out: Isolate Enzyme Inhibition IC50, FGFR3
T2 construct: purchased Invitrogen
Experimental: as §1, §2

[3] = target: T3, FGFR1 (Homo sapiens, UniProt P11362); test: as above; format: biochemical; settings: means from 3 independent experiments; read-out: Isolate Enzyme Inhibition IC50, FGFR1
T3 construct: purchased Invitrogen
Experimental: as §1, §2

[4] = tested on: FGFR1 in H520 cells (phospho-ERK1/2); test: Drug washout Western blot assay, H520 cells; format: cell-based; settings: H520; 30 min exposure, 100 nM, with and without washout
[5] = tested on: FGFR3 in SW780 cells (phospho-ERK1/2); test: Drug washout Western blot assay, SW780 cells; format: cell-based; settings: SW780; 30 min exposure, 100 nM, with and without washout
[6] = tested on: SUM52 cells; test: Oxic and anoxic anti-proliferative activity of the prodrugs; settings: for Hypoxic Cytotoxicity Ratio (HCR), SUM52: ratio of oxic and anoxic IC50
[7] = read-out: Cellular Anti-proliferative IC50, SUM52, Anoxic, 4 hours of anoxia, remainder of assay oxic
[8] = read-out: Cellular Anti-proliferative IC50, SUM52, Oxic, oxic conditions

T3 sequence (P11362 22-822): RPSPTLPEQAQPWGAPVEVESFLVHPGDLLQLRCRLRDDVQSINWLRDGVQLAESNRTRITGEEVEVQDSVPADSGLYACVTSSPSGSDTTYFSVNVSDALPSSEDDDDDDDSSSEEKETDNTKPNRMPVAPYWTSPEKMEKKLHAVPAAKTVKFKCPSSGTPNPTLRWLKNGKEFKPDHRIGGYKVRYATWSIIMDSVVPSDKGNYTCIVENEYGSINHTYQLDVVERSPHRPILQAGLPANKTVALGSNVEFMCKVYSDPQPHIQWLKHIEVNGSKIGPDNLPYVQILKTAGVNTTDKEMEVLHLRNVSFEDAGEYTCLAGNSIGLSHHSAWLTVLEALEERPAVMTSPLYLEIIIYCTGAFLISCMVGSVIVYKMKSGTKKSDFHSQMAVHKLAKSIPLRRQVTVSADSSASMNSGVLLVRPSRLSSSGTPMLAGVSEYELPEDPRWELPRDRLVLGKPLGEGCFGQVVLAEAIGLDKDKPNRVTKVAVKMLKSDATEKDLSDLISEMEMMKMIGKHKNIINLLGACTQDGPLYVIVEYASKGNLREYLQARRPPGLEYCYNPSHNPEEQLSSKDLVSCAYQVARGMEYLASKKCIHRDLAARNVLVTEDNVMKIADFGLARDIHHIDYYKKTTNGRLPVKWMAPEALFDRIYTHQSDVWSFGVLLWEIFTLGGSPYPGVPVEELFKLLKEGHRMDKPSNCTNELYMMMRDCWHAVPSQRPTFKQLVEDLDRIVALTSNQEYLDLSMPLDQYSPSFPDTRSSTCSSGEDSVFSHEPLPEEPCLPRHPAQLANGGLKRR
T2 sequence (P22607 23-806): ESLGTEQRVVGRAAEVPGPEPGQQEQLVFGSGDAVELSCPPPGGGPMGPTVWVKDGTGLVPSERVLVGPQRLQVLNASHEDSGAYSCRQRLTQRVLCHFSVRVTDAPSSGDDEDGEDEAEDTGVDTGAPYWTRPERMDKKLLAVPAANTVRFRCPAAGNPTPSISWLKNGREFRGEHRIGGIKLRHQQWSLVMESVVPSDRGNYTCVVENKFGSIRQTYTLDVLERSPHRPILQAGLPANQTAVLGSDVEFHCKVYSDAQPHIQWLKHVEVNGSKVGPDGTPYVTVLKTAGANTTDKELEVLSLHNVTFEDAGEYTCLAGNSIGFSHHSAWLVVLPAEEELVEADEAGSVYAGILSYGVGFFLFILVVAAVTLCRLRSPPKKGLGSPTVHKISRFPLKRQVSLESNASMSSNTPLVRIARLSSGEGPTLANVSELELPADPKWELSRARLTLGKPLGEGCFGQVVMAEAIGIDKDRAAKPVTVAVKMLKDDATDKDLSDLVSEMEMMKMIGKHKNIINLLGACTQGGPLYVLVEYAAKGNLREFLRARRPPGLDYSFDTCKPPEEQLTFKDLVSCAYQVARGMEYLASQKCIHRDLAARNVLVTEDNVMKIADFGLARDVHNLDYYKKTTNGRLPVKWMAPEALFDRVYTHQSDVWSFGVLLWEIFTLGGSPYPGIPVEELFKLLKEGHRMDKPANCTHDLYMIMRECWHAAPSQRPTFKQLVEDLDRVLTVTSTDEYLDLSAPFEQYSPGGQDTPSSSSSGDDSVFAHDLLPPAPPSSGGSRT
T1 sequence (P21802 22-821): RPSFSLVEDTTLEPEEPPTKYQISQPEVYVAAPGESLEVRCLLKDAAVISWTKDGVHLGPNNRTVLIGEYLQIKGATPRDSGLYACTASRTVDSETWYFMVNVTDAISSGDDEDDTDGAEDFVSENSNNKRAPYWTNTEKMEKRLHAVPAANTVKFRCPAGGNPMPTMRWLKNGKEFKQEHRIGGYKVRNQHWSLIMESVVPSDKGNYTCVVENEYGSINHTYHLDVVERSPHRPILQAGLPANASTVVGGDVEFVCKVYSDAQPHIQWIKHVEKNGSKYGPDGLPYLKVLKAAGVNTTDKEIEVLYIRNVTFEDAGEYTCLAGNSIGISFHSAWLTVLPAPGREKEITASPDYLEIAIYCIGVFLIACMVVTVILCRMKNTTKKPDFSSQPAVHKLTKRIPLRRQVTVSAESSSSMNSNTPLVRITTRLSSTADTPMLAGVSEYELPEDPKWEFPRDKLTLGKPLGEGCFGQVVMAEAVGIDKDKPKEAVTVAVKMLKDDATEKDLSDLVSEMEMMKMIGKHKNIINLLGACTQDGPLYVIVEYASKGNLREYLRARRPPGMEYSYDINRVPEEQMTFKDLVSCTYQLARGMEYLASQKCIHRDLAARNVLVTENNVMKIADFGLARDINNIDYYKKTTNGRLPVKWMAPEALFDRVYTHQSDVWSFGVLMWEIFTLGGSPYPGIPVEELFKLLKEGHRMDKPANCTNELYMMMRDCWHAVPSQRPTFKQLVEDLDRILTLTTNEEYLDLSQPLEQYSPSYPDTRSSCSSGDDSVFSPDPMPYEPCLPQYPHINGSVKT

SMILES	IC50 [1]	IC50 [2]	IC50 [3]	reversible or irreversible inhibition of FGFR1 in cells [4]	reversible or irreversible inhibition of FGFR3 in cells [5]	Hypoxic Cytotoxicity Ratio (HCR), SUM52 [6]	IC50 [6, 7]	IC50 [6, 8]
CNc1ncc2c(n1)N(C1CCN(C(=O)/C=C/CN3CCCCC3)CC1)C(=O)N(c1c(Cl)c(OC)cc(OC)c1Cl)C2 [Compound 124, (E)-3-(2,6-dichloro-3,5-dimethoxyphenyl)-7-(methylamino)-1-(1-(4-(piperidin-1-yl)but-2-enoyl)piperidin-4-yl)-3,4-dihydropyrimido[4,5-d]pyrimidin-2(1H)-one]	1.9 nM	12 nM	0.8 nM	–	–	–	–	–
CNc1ncc2c(n1)N(Cc1cccc(NC(=O)/C=C/CN(C)C)c1)C(=O)N(c1c(Cl)c(OC)cc(OC)c1Cl)C2 [Compound 127, (E)-N-(3-((3-(2,6-dichloro-3,5-dimethoxyphenyl)-7-(methylamino)-2-oxo-3,4-dihydropyrimido[4,5-d]pyrimidin-1(2H)-yl)methyl)phenyl)-4-(dimethylamino)but-2-enamide]	2.7 nM	35 nM	1 nM	–	–	–	–	–
CNc1ncc2cc(-c3c(Cl)c(OC)cc(OC)c3Cl)c(=O)n(C3CCN(C(=O)/C=C/CN(C)C)CC3)c2n1 [Compound 132, (E)-6-(2,6-dichloro-3,5-dimethoxyphenyl)-8-(1-(4-(dimethylamino)but-2-enoyl)piperidin-4-yl)-2-(methylamino)pyrido[2,3-d]pyrimidin-7(8H)-one]	1 nM	4.9 nM	0.7 nM	–	–	–	–	–
COc1cc(OC)c(Cl)c(-c2cc3cnc(NC4CCOC4)nc3n(C3CCN(C(=O)/C=C/CN(C)C)CC3)c2=O)c1Cl (centres unmarked) [Compound 134, (E)-6-(2,6-dichloro-3,5-dimethoxyphenyl)-8-(1-(4-(dimethylamino)but-2-enoyl)piperidin-4-yl)-2-((tetrahydrofuran-3-yl)amino)pyrido[2,3-d]pyrimidin-7(8H)-one]	1.6 nM	11 nM	1.1 nM	–	–	–	–	–
COc1cc(OC)c(Cl)c(-c2cc3cnc(NC4CCOCC4)nc3n(C3CCN(C(=O)/C=C/CN(C)C)CC3)c2=O)c1Cl [Compound 135, (E)-6-(2,6-dichloro-3,5-dimethoxyphenyl)-8-(1-(4-(dimethylamino)but-2-enoyl)piperidin-4-yl)-2-((tetrahydro-2H-pyran-4-yl)amino)pyrido[2,3-d]pyrimidin-7(8H)-one]	1.2 nM	6.3 nM	0.9 nM	–	–	–	–	–
COc1cc(OC)c(Cl)c(-c2cc3cnc(NC4CCCCC4)nc3n(C3CCN(C(=O)/C=C/CN(C)C)CC3)c2=O)c1Cl [Compound 136, (E)-2-(cyclohexylamino)-6-(2,6-dichloro-3,5-dimethoxyphenyl)-8-(1-(4-(dimethylamino)but-2-enoyl)piperidin-4-yl)pyrido[2,3-d]pyrimidin-7(8H)-one]	1.3 nM	6.7 nM	1.1 nM	–	–	–	–	–
COc1cc(OC)c(Cl)c(-c2cc3cnc(Nc4ccccc4)nc3n(C3CCN(C(=O)/C=C/CN(C)C)CC3)c2=O)c1Cl [Compound 138, (E)-6-(2,6-dichloro-3,5-dimethoxyphenyl)-8-(1-(4-(dimethylamino)but-2-enoyl)piperidin-4-yl)-2-(phenylamino)pyrido[2,3-d]pyrimidin-7(8H)-one]	1.1 nM	5.1 nM	1.1 nM	potent irreversible inhibitors	–	–	–	–
COc1cc(OC)c(Cl)c(-c2cc3cnc(Nc4ccc(F)cc4)nc3n(C3CCN(C(=O)/C=C/CN(C)C)CC3)c2=O)c1Cl [Compound 139, (E)-6-(2,6-dichloro-3,5-dimethoxyphenyl)-8-(1-(4-(dimethylamino)but-2-enoyl)piperidin-4-yl)-2-((4-fluorophenyl)amino)pyrido[2,3-d]pyrimidin-7(8H)-one]	1.1 nM	6 nM	0.3 nM	–	–	–	–	–
COc1cccc(Nc2ncc3cc(-c4c(Cl)c(OC)cc(OC)c4Cl)c(=O)n(C4CCN(C(=O)/C=C/CN(C)C)CC4)c3n2)c1 [Compound 140, (E)-6-(2,6-dichloro-3,5-dimethoxyphenyl)-8-(1-(4-(dimethylamino)but-2-enoyl)piperidin-4-yl)-2-((3-methoxyphenyl)amino)pyrido[2,3-d]pyrimidin-7(8H)-one]	0.9 nM	4.9 nM	0.7 nM	–	–	–	–	–
COc1cc(Nc2ncc3cc(-c4c(Cl)c(OC)cc(OC)c4Cl)c(=O)n(C4CCN(C(=O)/C=C/CN(C)C)CC4)c3n2)ccc1F [Compound 141, (E)-6-(2,6-dichloro-3,5-dimethoxyphenyl)-8-(1-(4-(dimethylamino)but-2-enoyl)piperidin-4-yl)-2-((4-fluoro-3-methoxyphenyl)amino)pyrido[2,3-d]pyrimidin-7(8H)-one]	1.5 nM	5.5 nM	0.7 nM	–	–	–	–	–
CNc1ncc2cc(-c3c(Cl)c(OC)cc(OC)c3Cl)c(=O)n(Cc3cccc(NC(=O)/C=C/CN(C)C)c3)c2n1 [Compound 143, (E)-N-(3-((6-(2,6-dichloro-3,5-dimethoxyphenyl)-2-(methylamino)-7-oxopyrido[2,3-d]pyrimidin-8(7H)-yl)methyl)phenyl)-4-(dimethylamino)but-2-enamide]	0.9 nM	8 nM	0.8 nM	–	–	–	–	–
CCNc1ncc2cc(-c3c(Cl)c(OC)cc(OC)c3Cl)c(=O)n(Cc3cccc(NC(=O)/C=C/CN(C)C)c3)c2n1 [Compound 144, (E)-N-(3-((6-(2,6-dichloro-3,5-dimethoxyphenyl)-2-(ethylamino)-7-oxopyrido[2,3-d]pyrimidin-8(7H)-yl)methyl)phenyl)-4-(dimethylamino)but-2-enamide]	1.6 nM	6.7 nM	0.9 nM	–	–	–	–	–
COc1cc(OC)c(Cl)c(-c2cc3cnc(NC(C)C)nc3n(Cc3cccc(NC(=O)/C=C/CN(C)C)c3)c2=O)c1Cl [Compound 145, (E)-N-(3-((6-(2,6-dichloro-3,5-dimethoxyphenyl)-2-(isopropylamino)-7-oxopyrido[2,3-d]pyrimidin-8(7H)-yl)methyl)phenyl)-4-(dimethylamino)but-2-enamide]	2.5 nM	6.9 nM	1.3 nM	–	–	–	–	–
CNc1ncc2cc(-c3c(Cl)c(OC)cc(OC)c3Cl)c(=O)n(C(C)c3cccc(NC(=O)/C=C/CN(C)C)c3)c2n1 (centres unmarked) [Compound 146, (E)-N-(3-(1-(6-(2,6-dichloro-3,5-dimethoxyphenyl)-2-(methylamino)-7-oxopyrido[2,3-d]pyrimidin-8(7H)-yl)ethyl)phenyl)-4-(dimethylamino)but-2-enamide]	1.2 nM	6.2 nM	1.2 nM	–	–	–	–	–
C=CC(=O)N1CCC(N2C(=O)N(c3c(Cl)c(OC)cc(OC)c3Cl)Cc3cnc(NC)nc32)CC1 [Compound 156, 1-(1-acryloylpiperidin-4-yl)-3-(2,6-dichloro-3,5-dimethoxyphenyl)-7-(methylamino)-3,4-dihydropyrimido[4,5-d]pyrimidin-2(1H)-one]	–	–	–	–	potent reversible inhibitors	–	–	–
COc1ccc(Nc2ncc3c(n2)N(C2CCN(C(=O)/C=C/C[N+](C)(C)Cc4c([N+](=O)[O-])ncn4C)CC2)C(=O)N(c2c(Cl)c(OC)cc(OC)c2Cl)C3)cc1.[Br-] [Compound 206, (E)-4-(4-(3-(2,6-dichloro-3,5-dimethoxyphenyl)-7-((4-methoxyphenyl)amino)-2-oxo-3,4-dihydropyrimido[4,5-d]pyrimidin-1(2H)-yl)piperidin-1-yl)-N,N-dimethyl-N-((1-methyl-4-nitro-1H-imidazol-5-yl)methyl)-4-oxobut-2-en-1-aminium bromide]	–	–	–	–	–	8	1 nM	8 nM
COc1cc(OC)c(Br)c(N2Cc3cnc(NC(C)C)nc3N(C3CCN(C(=O)/C=C/C[N+](C)(C)Cc4c([N+](=O)[O-])ncn4C)CC3)C2=O)c1Br.[Br-] [Compound 207, (E)-4-(4-(3-(2,6-dibromo-3,5-dimethoxyphenyl)-7-(isopropylamino)-2-oxo-3,4-dihydropyrimido[4,5-d]pyrimidin-1(2H)-yl)piperidin-1-yl)-N,N-dimethyl-N-((1-methyl-4-nitro-1H-imidazol-5-yl)methyl)-4-oxobut-2-en-1-aminium bromide]	–	–	–	–	–	53	8 nM	404 nM
COc1cc(OC)c(Br)c(-c2cc3cnc(NC(C)C)nc3n(C3CCN(C(=O)/C=C/C[N+](C)(C)Cc4c([N+](=O)[O-])ncn4C)CC3)c2=O)c1Br.[Br-] [Compound 210, (E)-4-(4-(6-(2,6-dibromo-3,5-dimethoxyphenyl)-2-(isopropylamino)-7-oxopyrido[2,3-d]pyrimidin-8(7H)-yl)piperidin-1-yl)-N,N-dimethyl-N-((1-methyl-4-nitro-1H-imidazol-5-yl)methyl)-4-oxobut-2-en-1-aminium bromide]	–	–	–	–	–	9	4 nM	35 nM
COc1cc(OC)c(Br)c(-c2cc3cnc(Nc4ccccc4)nc3n(C3CCN(C(=O)/C=C/C[N+](C)(C)Cc4c([N+](=O)[O-])ncn4C)CC3)c2=O)c1Br.[Br-] [Compound 212, (E)-4-(4-(6-(2,6-dibromo-3,5-dimethoxyphenyl)-7-oxo-2-(phenylamino)pyrido[2,3-d]pyrimidin-8(7H)-yl)piperidin-1-yl)-N,N-dimethyl-N-((1-methyl-4-nitro-1H-imidazol-5-yl)methyl)-4-oxobut-2-en-1-aminium bromide]	–	–	–	–	–	8	2 nM	13 nM
